Experimental findings from patent US20260151391A1, “TREATMENT OF MITOCHONDRIAL DISEASES WITH sGC STIMULATORS” (Tisento Therapeutics Inc., priority 2022, published 2026) are described below.

The data set relates to memory disruption induced by MK-801 in male Long Evans rats. Briefly: Novel Object Recognition (NOR) test, memory disruption induced by MK-801. The format is in vivo, rat. The following applies: any dose tested, oral. The protocol:
In the present study, a memory saving model was used. MK-801 (Dizocilpine), an uncompetitive antagonist of the NMDA receptor was used to cause deficit of recognition memory. sGC stimulators were evaluated for their efficacy to prevent memory impairment induced by MK-801.
Adult male Long-Evans rats (275-299 gram at arrival from Envigo, Indianapolis, IN) were used in this study. Rats were placed in the experimental rooms and assigned unique identification numbers (tail marks). Rats were housed 2 per cage in polycarbonate cages with filter tops and acclimated for at least 7 days prior to testing. […]
NOR test was conducted in an open-field arena (40×40 cm) placed in a sound-attenuated room under dimmed lighting. […] All training and testing trials were video-taped and scored by an observer blind to treatments.
On Days 1 and 2, rats were allowed to freely explore the arena (no objects inside) for a 5-minute habituation period. […] Each rat was placed in the arena facing the same direction at the same position, and the time spent actively exploring the objects during a 3-minute training period (T1) was recorded. […] Each rat was placed back into the test arena in the presence of one familiar object and one novel object for 5 minutes, and the time spent exploring both objects was recorded. […]

`Oc1nc(-c2cn3ccnc3c(Cc3cc(F)ccc3F)n2)ncc1F` [Compound I-20, 5-fluoro-2-(8-(2,5-difluorobenzyl)imidazo[1,2-a]pyrazin-6-yl)pyrimidin-4-ol]: the “obvious side effects in NOR study” value is recorded as “None of the rats in this study showed obvious side effects”.
